Assay results from patent US8895585B2, “Nicotinamide derivative or salt thereof” (FUJIFILM Corporation, priority 2010, dated 2014).

Tests used:
THP-1 cells = test: TNFα generation assay; type: cell-based, human; settings: Homo sapiens, THP-1, THP-1 cells; Table 22; read-out: IC50 in TNFα generation assay
Summary of the method: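 THP-1 cells differentiated to macrophage-like cells with 10 ng/ml IFN-γ for 2 days, preincubated with compound 30 min at room temperature, then cultured 7 h on plates coated with human IgG (10 μg/ml). Secreted TNFα measured by ELISA or AlphaLISA.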

[1] = molecular target: T1, glutathione S-transferase (GST)-fused full-length human Syk protein (Homo sapiens, UniProt P43405); test: Syk enzyme assay; type: biochemical; settings: Syk enzyme assay, Test Example 1; read-out: IC50 of Syk-inhibitory activity
T1 construct: (GST)-fused full-length human Syk protein; GST (glutathione S-transferase); purchased Carna Biosciences
Summary of the method: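 IC50 values come from a time-resolved FRET readout (615 and 665 nm) of substrate phosphorylation, measured after an EDTA stop and 1 h antibody binding. The kinase reaction ran 40 min at room temperature with 27 μM ATP and 0.4 μM biotin-peptide, following a 15 min compound preincubation with baculovirus-made GST-full-length human Syk.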

IC50 (THP-1 cells) [nM]	IC50 [1] [nM]	SMILES
65 to 130	10 to 50	C[C@H](N)[C@@H](C)Nc1nc(Nc2cncc(-n3cccn3)c2)c(C(N)=O)cc1F (racemic) [Example 006-192, 2-((5-(1H-pyrazol-1-yl)pyridin-3-yl)amino)-6-(((2R,3S)-3-aminobutan-2-yl)amino)-5-fluoronicotinamide 2-((5-(1H-pyrazol-1-yl)pyridin-3-yl)amino)-6-(((2S,3R)-3-aminobutan-2-yl)amino)-5-fluoronicotinamide]
< 65	< 10	C[C@H](N)[C@@H](C)Nc1nc(Nc2cncc(C3CC3)c2)c(C(N)=O)cc1F (racemic) [Example 006-193, 6-(((2R,3S)-3-aminobutan-2-yl)amino)-2-((5-cyclopropylpyridin-3-yl)amino)-5-fluoronicotinamide 6-(((2S,3R)-3-aminobutan-2-yl)amino)-2-((5-cyclopropylpyridin-3-yl)amino)-5-fluoronicotinamide]
< 65	< 10	C[C@H](N)[C@@H](C)Nc1nc(Nc2cncc(-c3ccccc3)c2)c(C(N)=O)cc1F (racemic) [Example 006-195, 6-(((2R,3S)-3-aminobutan-2-yl)amino)-5-fluoro-2-((5-phenylpyridin-3-yl)amino)nicotinamide 6-(((2S,3R)-3-aminobutan-2-yl)amino)-5-fluoro-2-((5-phenylpyridin-3-yl)amino)-nicotinamide]
65 to 130	10 to 50	Cc1cnc2cc(Nc3nc(N[C@H](C)[C@H](C)N)c(F)cc3C(N)=O)ccc2n1 (racemic) [Example 006-196, 6-(((2R,3S)-3-aminobutan-2-yl)amino)-5-fluoro-2-((2-methylquinoxalin-6-yl)amino)nicotinamide 6-(((2S,3R)-3-aminobutan-2-yl)amino)-5-fluoro-2-((2-methylquinoxalin-6-yl)amino)nicotinamide]
130 to 200	< 10	CCOc1cc(Nc2nc(N[C@H](C)[C@H](C)N)c(F)cc2C(N)=O)ccn1 (racemic) [Example 006-213, 6-(((2R,3S)-3-aminobutan-2-yl)amino)-2-((2-ethoxypyridin-4-yl)amino)-5-fluoronicotinamide 6-(((2S,3R)-3-aminobutan-2-yl)amino)-2-((2-ethoxypyridin-4-yl)amino)-5-fluoronicotinamide]
< 65	< 10	C[C@H](N)[C@@H](C)Nc1nc(Nc2ccc3ncccc3c2)c(C(N)=O)cc1F (racemic) [Example 39-1, 6-(((2R,3S)-3-aminobutan-2-yl)amino)-5-fluoro-2-((quinolin-6-yl)amino)nicotinamide 6-(((2S,3R)-3-aminobutan-2-yl)amino)-5-fluoro-2-((quinolin-6-yl)amino)nicotinamide]
130 to 200	< 10	Cn1cc(-c2cncc(Nc3nc(N[C@@H]4CCCC[C@@H]4N)c(F)cc3C(N)=O)c2)cn1 (relative stereo) [Example 004-072, 6-(cis-2-aminocyclohexylamino)-5-fluoro-2-((5-(1-methyl-1H-pyrazol-4-yl)pyridin-3-yl)-amino)nicotinamide]
65 to 130	< 10	NC(=O)c1cc(F)c(N[C@@H]2CCCC[C@@H]2N)nc1Nc1cncc(-c2cncs2)c1 (relative stereo) [Example 004-074, 6-(cis-2-aminocyclohexylamino)-5-fluoro-2-((5-(thiazol-5-yl)pyridin-3-yl)amino)-nicotinamide]
130 to 200	< 10	NC(=O)c1cc(F)c(N[C@@H]2CCCC[C@@H]2N)nc1Nc1cncc(-c2cnn(Cc3ccccc3)c2)c1 (relative stereo) [Example 004-075, 6-(cis-2-aminocyclohexylamino)-2-((5-(1-benzyl-1H-pyrazol-4-yl)pyridin-3-yl)amino)-5-fluoronicotinamide]
130 to 200	< 10	NC(=O)c1cc(F)c(N[C@@H]2CCCC[C@@H]2N)nc1Nc1cncc(-c2ccc3[nH]ccc3c2)c1 (relative stereo) [Example 004-076, 2-((5-(1H-indol-5-yl)pyridin-3-yl)amino)-6-(cis-2-aminocyclohexylamino)-5-fluoronicotinamide]
65 to 130	< 10	NC(=O)c1cc(F)c(N[C@@H]2CCCC[C@@H]2N)nc1Nc1cncc(-c2ccsc2)c1 (relative stereo) [Example 004-077, 6-(cis-2-aminocyclohexylamino)-5-fluoro-2-((5-(thiophene-3-yl)pyridin-3-yl)amino)-nicotinamide]
65 to 130	< 10	NC(=O)c1cc(F)c(N[C@@H]2CCCC[C@@H]2N)nc1Nc1cncc(-c2ccoc2)c1 (relative stereo) [Example 004-078, 6-(cis-2-aminocyclohexylamino)-5-fluoro-2-((5-(furan-3-yl)pyridin-3-yl)amino)-nicotinamide]
130 to 200	< 10	NC(=O)c1cc(F)c(N[C@@H]2CCCC[C@@H]2N)nc1Nc1cc(F)cc2[nH]ccc12 (relative stereo) [Example 004-082, 6-(cis-2-aminocyclohexylamino)-5-fluoro-2-((6-fluoro-1H-indol-4-yl)amino)nicotinamide]
65 to 130	< 10	NC(=O)c1cc(F)c(N[C@@H]2CCCC[C@@H]2N)nc1Nc1cc([N+](=O)[O-])c2[nH]ccc2c1 (relative stereo) [Example 004-089, 6-(cis-2-aminocyclohexylamino)-5-fluoro-2-((7-nitro-1H-indol-5-yl)amino)nicotinamide]
65 to 130	< 10	COCCn1ncc2cc(Nc3nc(N[C@@H]4CCCC[C@@H]4N)c(F)cc3C(N)=O)ccc21 (relative stereo) [Example 004-091, 6-(cis-2-aminocyclohexylamino)-5-fluoro-2-((1-(2-methoxyethyl)-1H-indazol-5-yl)amino)-nicotinamide]

Continued, molecule first:

SMILES	IC50 (THP-1 cells) [nM]	IC50 [1] [nM]
NC(=O)c1cc(F)c(N[C@@H]2CCCC[C@@H]2N)nc1Nc1cncc(N2CCCC2)c1 (relative stereo) [Example 004-049]	130 to 200	< 10
NC(=O)c1cc(F)c(N[C@@H]2CCCC[C@@H]2N)nc1Nc1cncc(N2CCCCC2)c1 (relative stereo) [Example 004-050]	130 to 200	10 to 50
NC(=O)c1cc(F)c(N[C@@H]2CCCC[C@@H]2N)nc1Nc1cncc(N2CCOCC2)c1 (relative stereo) [Example 004-051]	130 to 200	< 10
NC(=O)c1cc(F)c(N[C@@H]2CCCC[C@@H]2N)nc1Nc1cncc(-c2ccc[nH]2)c1 (relative stereo) [Example 004-053]	65 to 130	< 10
NC(=O)c1cc(F)c(N[C@@H]2CCCC[C@@H]2N)nc1Nc1cncc(-c2cccs2)c1 (relative stereo) [Example 004-054]	65 to 130	< 10
NC(=O)c1cc(F)c(N[C@@H]2CCCC[C@@H]2N)nc1Nc1cncc(C2CC2)c1 (relative stereo) [Example 004-055]	65 to 130	< 10
NC(=O)c1cc(F)c(N[C@@H]2CCCC[C@@H]2N)nc1Nc1cncc(-c2ccc3c(c2)OCCO3)c1 (relative stereo) [Example 004-056]	130 to 200	< 10
NC(=O)c1cc(F)c(N[C@@H]2CCCC[C@@H]2N)nc1Nc1cncc(-c2ccco2)c1 (relative stereo) [Example 004-058]	65 to 130	< 10
NC(=O)c1cc(F)c(N[C@@H]2CCCC[C@@H]2N)nc1Nc1cnc2c(N)cccc2c1 (relative stereo) [Example 004-059]	< 65	< 10
NC(=O)c1cc(F)c(N[C@@H]2CCCC[C@@H]2N)nc1Nc1cnc2[nH]ccc2c1 (relative stereo) [Example 004-061]	< 65	< 10
NC(=O)c1cc(F)c(N[C@@H]2CCCC[C@@H]2N)nc1Nc1cncc2[nH]ccc12 (relative stereo) [Example 004-062]	< 65	< 10
NC(=O)Nc1cccc2cc(Nc3nc(N[C@@H]4CCCC[C@@H]4N)c(F)cc3C(N)=O)cnc12 (relative stereo) [Example 004-064]	< 65	100 to 1000
COc1cc(Nc2nc(N[C@@H]3CCCC[C@@H]3N)c(F)cc2C(N)=O)c2cc[nH]c2n1 (relative stereo) [Example 004-065, 6-(cis-2-aminocyclohexylamino)-5-fluoro-2-((6-methoxy-1H-pyrrolo[2,3-b]pyridin-4-yl)-amino)nicotinamide]	65 to 130	< 10
NC(=O)c1cc(F)c(N[C@@H]2CCCC[C@@H]2N)nc1Nc1cc(-n2ccnn2)nc2[nH]ccc12 (relative stereo) [Example 004-068, 2-((6-(1H-1,2,3-triazol-1-yl)-1H-pyrrolo[2,3-b]pyridin-4-yl)amino)-6-(cis-2-aminocyclohexylamino)-5-fluoronicotinamide]	65 to 130	< 10
NC(=O)c1cc(F)c(N[C@@H]2CCCC[C@@H]2N)nc1Nc1cc(-n2cncn2)nc2[nH]ccc12 (relative stereo) [Example 004-069, 2-((6-(1H-1,2,4-triazol-1-yl)-1H-pyrrolo[2,3-b]pyridin-4-yl)amino)-6-(cis-2-aminocyclohexylamino)-5-fluoronicotinamide]	65 to 130	< 10
Cc1cc2cc(Nc3nc(N[C@@H]4CCCC[C@@H]4N)c(F)cc3C(N)=O)ccc2[nH]1 (relative stereo) [Example 004-071, 6-(cis-2-aminocyclohexylamino)-5-fluoro-2-((2-methyl-1H-indol-5-yl)amino)nicotinamide]	130 to 200	< 10
